Values after ≈ are worked out from the molar mass of the structure shown.
Tests used:
Parameters in all cases: agar dilution MIC, growth inhibition of clinical Burkholderia isolates
[1] = tested on: T1, B. ambifaria AU11161; assay: microbe, parasite or virus in culture; conditions: Burkholderia ambifaria, AU11161
T1 construct: AU11161
How it was run: (§1)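 MICs by agar dilution against Bcc and B. gladioli clinical isolates, interpreted with CLSI breakpoints where available; K. pneumoniae ATCC 700603 (SHV-18) and ATCC BAA-1705 (KPC) served as quality controls.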

[2] = tested on: T2, B. cenocepacia AU19684; assay: microbe, parasite or virus in culture; conditions: Burkholderia cenocepacia, AU19684
T2 construct: AU19684
How it was run: as §1

[3] = tested on: T3, B. cenocepacia AU20146; assay: microbe, parasite or virus in culture; conditions: Burkholderia cenocepacia, AU20146
T3 construct: AU20146
How it was run: as §1

[4] = tested on: T4, B. cenocepacia AU29265; assay: microbe, parasite or virus in culture; conditions: Burkholderia cenocepacia, AU29265
T4 construct: AU29265
How it was run: as §1

[5] = tested on: T5, B. cenocepacia AU8635; assay: microbe, parasite or virus in culture; conditions: Burkholderia cenocepacia, AU8635
T5 construct: AU8635
How it was run: as §1

[6] = tested on: T6, B. cepacia AU13163; assay: microbe, parasite or virus in culture; conditions: Burkholderia cepacia, AU13163
T6 construct: AU13163
How it was run: as §1

[7] = tested on: T7, B. contaminans AU22662; assay: organism not typed
T7 construct: AU22662
How it was run: as §1

[8] = tested on: T8, B. gladioli AU27927; assay: organism not typed
T8 construct: AU27927
How it was run: as §1

[9] = tested on: T9, B. gladioli AU29541; assay: organism not typed
T9 construct: AU29541
How it was run: as §1

[10] = tested on: T10, B. multivorans AU11204; assay: microbe, parasite or virus in culture; conditions: Burkholderia multivorans, AU11204
T10 construct: AU11204
How it was run: as §1

[11] = tested on: T11, B. multivorans AU11358; assay: microbe, parasite or virus in culture; conditions: Burkholderia multivorans, AU11358
T11 construct: AU11358
How it was run: as §1

[12] = tested on: T12, B. multivorans AU15814; assay: microbe, parasite or virus in culture; conditions: Burkholderia multivorans, AU15814
T12 construct: AU15814
How it was run: as §1

[13] = tested on: T13, B. multivorans AU16734; assay: microbe, parasite or virus in culture; conditions: Burkholderia multivorans, AU16734
T13 construct: AU16734
How it was run: as §1

[14] = tested on: T14, B. multivorans AU18096; assay: microbe, parasite or virus in culture; conditions: Burkholderia multivorans, AU18096
T14 construct: AU18096
How it was run: as §1

[15] = tested on: T15, B. multivorans AU22436; assay: microbe, parasite or virus in culture; conditions: Burkholderia multivorans, AU22436
T15 construct: AU22436
How it was run: as §1

[16] = tested on: T16, B. multivorans AU22892; assay: microbe, parasite or virus in culture; conditions: Burkholderia multivorans, AU22892
T16 construct: AU22892
How it was run: as §1

[17] = tested on: T17, B. multivorans AU23365; assay: microbe, parasite or virus in culture; conditions: Burkholderia multivorans, AU23365
T17 construct: AU23365
How it was run: as §1

[18] = tested on: T18, B. multivorans AU24277; assay: microbe, parasite or virus in culture; conditions: Burkholderia multivorans, AU24277
T18 construct: AU24277
How it was run: as §1

[19] = tested on: T19, B. multivorans AU28069; assay: microbe, parasite or virus in culture; conditions: Burkholderia multivorans, AU28069
T19 construct: AU28069
How it was run: as §1

[20] = tested on: T20, B. multivorans AU29198; assay: microbe, parasite or virus in culture; conditions: Burkholderia multivorans, AU29198
T20 construct: AU29198
How it was run: as §1

[21] = tested on: T21, B. multivorans AU30438; assay: microbe, parasite or virus in culture; conditions: Burkholderia multivorans, AU30438
T21 construct: AU30438
How it was run: as §1

[22] = tested on: T22, B. stabilis AU9035; assay: microbe, parasite or virus in culture; conditions: Burkholderia stabilis, AU9035
T22 construct: AU9035
How it was run: as §1

Row | SMILES | MIC [1] [µg/mL] | MIC [2] [µg/mL] | MIC [3] [µg/mL] | MIC [4] [µg/mL] | MIC [5] [µg/mL] | MIC [6] [µg/mL] | MIC [7] [µg/mL] | MIC [8] [µg/mL] | MIC [9] [µg/mL] | MIC [10] [µg/mL] | MIC [11] [µg/mL] | MIC [12] [µg/mL] | MIC [13] [µg/mL] | MIC [14] [µg/mL] | MIC [15] [µg/mL] | MIC [16] [µg/mL] | MIC [17] [µg/mL] | MIC [18] [µg/mL] | MIC [19] [µg/mL] | MIC [20] [µg/mL] | also measured
1 | CO/N=C(\C(=O)N[C@@H]1C(=O)N2C(C(=O)[O-])=C(C[N+]3(C)CCCC3)CS[C@H]12)c1csc(N)n1 [cefepime] | > 32 | > 32 | 16 (≈ 33.3 µM) | 16 (≈ 33.3 µM) | > 32 | 16 (≈ 33.3 µM) | 16 (≈ 33.3 µM) | 8 (≈ 16.6 µM) | 32 (≈ 66.6 µM) | 4 (≈ 8.32 µM) | 8 (≈ 16.6 µM) | 32 (≈ 66.6 µM) | 16 (≈ 33.3 µM) | 2 (≈ 4.16 µM) | 8 (≈ 16.6 µM) | 2 (≈ 4.16 µM) | > 32 | > 32 | 8 (≈ 16.6 µM) | > 32 | MIC [21]: 16 µg/mL (≈ 33.3 µM); MIC [22]: 32 µg/mL (≈ 66.6 µM)
2 | C[C@H]1COc2c(N3CCN(C)CC3)c(F)cc3c(=O)c(C(=O)O)cn1c23 [levofloxacin] | 32 (≈ 88.6 µM) | > 32 | 2 (≈ 5.53 µM) | 2 (≈ 5.53 µM) | > 32 | 2 (≈ 5.53 µM) | 4 (≈ 11.1 µM) | 1 (≈ 2.77 µM) | 8 (≈ 22.1 µM) | 2 (≈ 5.53 µM) | 2 (≈ 5.53 µM) | 16 (≈ 44.3 µM) | 8 (≈ 22.1 µM) | 4 (≈ 11.1 µM) | > 32 | 2 (≈ 5.53 µM) | 8 (≈ 22.1 µM) | 32 (≈ 88.6 µM) | 4 (≈ 11.1 µM) | 8 (≈ 22.1 µM) | MIC [21]: 4 µg/mL (≈ 11.1 µM); MIC [22]: 16 µg/mL (≈ 44.3 µM)
3 | C[C@@H](O)[C@H]1C(=O)N2C(C(=O)O)=C(S[C@@H]3CN[C@H](C(=O)N(C)C)C3)[C@H](C)[C@H]12 [meropenem] | 8 (≈ 20.9 µM) | 8 (≈ 20.9 µM) | 4 (≈ 10.4 µM) | 2 (≈ 5.22 µM) | 16 (≈ 41.7 µM) | 4 (≈ 10.4 µM) | 4 (≈ 10.4 µM) | 1 (≈ 2.61 µM) | 8 (≈ 20.9 µM) | 2 (≈ 5.22 µM) | 8 (≈ 20.9 µM) | > 32 | 16 (≈ 41.7 µM) | 1 (≈ 2.61 µM) | 8 (≈ 20.9 µM) | 4 (≈ 10.4 µM) | 8 (≈ 20.9 µM) | 16 (≈ 41.7 µM) | 4 (≈ 10.4 µM) | 16 (≈ 41.7 µM) | MIC [21]: 4 µg/mL (≈ 10.4 µM); MIC [22]: 8 µg/mL (≈ 20.9 µM)

Reference: publication PMC10648927, “Examining the activity of cefepime-taniborbactam against Burkholderia cepacia complex and Burkholderia gladioli isolated from cystic fibrosis patients in the United States” (Antimicrobial Agents and Chemotherapy, 2023)
